Data reported in patent US20020035038A1, “Fungicidal combinations comprising thieno[2,3-d]pyrimidin-4-one” (priority 1998, published 2002).

Test system: Erysiphe graminis f.sp. hordei
Assay: Leaf-disc-test, efficacy against Erysiphe graminis f.sp. hordei on barley (Example B-2 c)
Format: in vivo
Details: single active ingredient, curative application 2 days after inoculation, barley leaf segments, infection in control: 68%
Source text: A synergistic effect exists whenever the action of an active ingredient combination is greater than the sum of the actions of the individual components. The action to be expected E for a given active ingredient combination obeys the so-called COLBY formula and can be calculated as follows (COLBY, S. R. “Calculating synergistic and antagonistic responses of herbicide combination”. Weeds, Vol. 15, pages 20-22; 1967): According to Colby, the expected (additive) action of active ingredients I+II using p+q ppm of active ingredient is [formula] If the action actually observed (O) is greater than the expected action (E), then the action of the combination is superadditive, i.e. there is a synergistic effect. Efficacy Against Erysiphe graminis f.sp. hordei on Barley c) Leaf-disc-test Barley plants, cv. “Hasso” were cultivated under greenhouse conditions at 20° C. in TKS-1 standard soil for 10 days. Leaf segments with a length of 10 mm were cut out of the primary leaves and were placed with the upper side up in multiple well plates (24 wells per plate). Each well contains 2 ml of 0.2% water agar+35 ppm benzimidazole. The fungicide treatment was carried out 2 days after inoculation (curative-application) by a total volume of 400 μl that were sprayed with an “air brush” on 4 leaf segments meaning 4 replicates. The inoculated leaf segments were incubated for 1 week in an incubation chamber by 18° C., the first two days in the dark, and the five next days by 12 hours light. After the incubation period, the % leaf attack was estimated with the help of a binocular and the % activity was calculated relative to the check.

| Structure (SMILES) | % activity observed (conc. 0.0025 %) [%] | % activity observed (conc. 0.01 %) [%] | % activity observed (conc. 0.025 %) [%] |
| --- | --- | --- | --- |
| CC(C1CC1)C(O)(Cn1cncn1)c1ccc(Cl)cc1 (stereo not drawn) [cyproconazole] | 36 | – | – |
| CC1COC(Cn2cncn2)(c2ccc(Oc3ccc(Cl)cc3)cc2Cl)O1 (stereo not drawn) [difenoconazole] | – | 0 | 41 |
